Key:
Conditions in all cases: stereoisomer not certain
[1] = HILIC, Merck SeQuant ZIC-pHILIC, 150 × 2.1 mm, 5 µm, 40 °C, 0.3 mL/min, estimated dead time 1.1 min; A: acetonitrile; B: water + 2.8 mM ammonium formate, pH 9; gradient (min/%B) 0/5 1/5 10/51 13/51 13.1/5 20/5
[2] = HILIC, Waters ACQUITY UPLC BEH Amide, 150 × 2.1 mm, 1.7 µm, 40 °C, 0.5 mL/min, estimated dead time 0.66 min; A: 5% water + 95% acetonitrile; B: 70% water + 30% acetonitrile + 10 mM ammonium formate, pH 6.5; gradient (min/%B) 0/0 2/0 20/70 23/70 24/0 31/0
[3] = RP, Phenomenex Kinetex C18, 150 × 2.1 mm, 1.7 µm, 30 °C, 0.3 mL/min, estimated dead time 1.1 min; A: water + 0.1% formic acid, pH 3; B: acetonitrile + 0.1% formic acid, pH 3; gradient (min/%B) 0/2 14/100 17/100 17.1/2 25/2

LC retention time [1] [min]	LC retention time [2] [min]	LC retention time [3] [min]	SMILES
8.97	13.2		Cn1cnc(C[C@H](N)C(=O)O)c1 [1-METHYL-L-HISTIDINE]
		2.37	NCC(N)C(=O)O (stereo not given) [2,3-DIAMINOPROPIONATE]
		9.58	CC(=O)N[C@@H]1[C@@H](O)[C@H](O)[C@@H](CO)O[C@H]1N [2-ACETAMIDO-2-DEOXY-BETA-D-GLUCOSYLAMINE]
8.23	4.02		O=CC[C@@H](O)[C@H](O)[C@H](O)CO [2-DEOXY-D-GLUCOSE]
		2.37	CCC(O)C(=O)[O-] (stereo not given) [2-HYDROXYBUTYRATE]
		8.62	CCCCCCCCCC(C)=O [2-UNDECANONE]
6.24	5.31		Cc1cnc(=O)[nH]c1N [5-METHYLCYTOSINE]
	1.14		O=C1CCCCO1 [5-VALEROLACTONE]
	8.78		CC(=O)C(C)O (stereo not given) [ACETOIN]
	6.38		CC(=O)OCC[N+](C)(C)C [ACETYLCHOLINE]
	14		NCCCCN=C(N)N.O=S(=O)(O)O [AGMATINE SULFATE]
7.96	4.85		NC(=O)NC1NC(=O)NC1=O (stereo not given) [ALLANTOIN]
8.78	6.89		NC(CCCC(=O)O)C(=O)O (stereo not given) [AMINOADIPATE]
10.1	12.5		Cn1cncc1CC(NC(=O)CCN)C(=O)O (stereo not given) [ANSERINE]
3.62	14.2		NC(N)=NCCCC(N)C(=O)O (stereo not given) [ARGININE]
9.25	11.5		NC(=O)CC(N)C(=O)O (stereo not given) [ASPARAGINE]
	1.93		NC(CC(=O)O)C(=O)O (stereo not given) [ASPARTATE]
	7.09		NCc1ccccc1 [BENZYLAMINE]
	10.4		NCCC(=O)O [BETA-ALANINE]
	7.63		C[N+](C)(C)CC(=O)[O-] [BETAINE]
	1.29		CCCC(=O)[O-] [BUTANOATE]
10.5	12.3		NCCC(=O)NC(Cc1cnc[nH]1)C(=O)O (stereo not given) [CARNOSINE]

LC retention time [1] [min]	LC retention time [2] [min]	LC retention time [3] [min]	SMILES
	10.9		OCC1OC(OC2C(CO)OC(O)C(O)C2O)C(O)C(O)C1O (stereo not given) [CELLOBIOSE]
	7.51		C[N+](C)(C)CCO [CHOLINE]
8.89	13.4		C[N+](C)(C)CCOP(=O)(O)OP(=O)([O-])OCC1OC(n2ccc(N)nc2=O)C(O)C1O (stereo not given) [CITICOLINE]
9.31	11.3		NC(=O)NCCCC(N)C(=O)O (stereo not given) [CITRULLINE]
8.59	9.87		CN(CC(=O)O)C(=N)N [CREATINE]
5.92	4.34		CN1CC(=O)NC1=N [CREATININE]
8.92	10.8		NC(CS(=O)(=O)O)C(=O)O (stereo not given) [CYSTEATE]
	5.15		Nc1ccnc(=O)[nH]1 [CYTOSINE]
6.28	1.86		O=CC(O)C1OC(=O)C(O)C1O [D-GLUCURONOLACTONE]
	14.4		NCCC[C@@H](N)C(=O)O [D-ORNITHINE]
	10.8		C[N+](C)(C)CCCC(=O)[O-] [DEOXYCARNITINE]
	8.78		OCCNCCO [DIETHANOLAMINE]
7.81	7.2		O=C1CC(C(=O)[O-])NC(=O)N1 (stereo not given) [DIHYDROOROTATE]
	1.45		O=C1CCNC(=O)N1 [DIHYDROURACIL]
	4.45		CCCCCCCCCCCCCCCC(=O)OCC(COP(=O)(O)OCCN)OC(=O)CCCCCCCCCCCCCCC (stereo not given) [DIPALMITOYL-PHOSPHOETHANOLAMINE]
	3.99		OCC(O)C(O)CO (stereo not given) [ERYTHRITOL]
	10.2		NCCCC(=O)O [GAMMA-AMINOBUTYRATE]
10.5	10.6		NC1C(O)OC(COS(=O)(=O)O)C(O)C1O (stereo not given) [GLUCOSAMINE 6-SULFATE]
	11.3		NC1C(O)OC(CO)C(O)C1O (stereo not given) [GLUCOSAMINE]
9.03	11		NC(=O)CCC(N)C(=O)O (stereo not given) [GLUTAMINE]
	0.89		COc1ccccc1O [GUAIACOL]
9.05	10.2		NC(N)=NCC(=O)O [GUANIDINOACETATE]

LC retention time [1] [min]	LC retention time [2] [min]	LC retention time [3] [min]	SMILES
9	10.3		NC(N)=NC(CC(=O)O)C(=O)O (stereo not given) [GUANIDINOSUCCINATE]
	0.91		CCCCCC(=O)[O-] [HEXANOATE]
	9.43		NCCc1cnc[nH]1 [HISTAMINE]
	9.82		NC(CO)Cc1cnc[nH]1 (stereo not given) [HISTIDINOL]
8.91	10.5		NC(CCO)C(=O)O (stereo not given) [HOMOSERINE]
	8.79		CC(C)C(=O)O [ISOBUTYRATE]
	1.86		CC(C)CC(=O)C(=O)O [KETOLEUCINE]
	9.76		C[C@H](N)C(=O)O [L-ALANINE]
7.2	3.12		O=C1OC(C(O)CO)C(O)C1O [L-GULONOLACTONE]
	6.24		CCCCCCCCCCCC(=O)OC(CC(=O)[O-])C[N+](C)(C)C (stereo not given) [LAUROYLCARNITINE]
	2.1		NC(=O)C=CC(=O)O [MALEAMATE]
9.37	11.8		OCC1OC(OCC2OC(O)C(O)C(O)C2O)C(O)C(O)C1O (stereo not given) [MELIBIOSE]
	1.63		COC(=O)CC(C)=O [METHYL ACETOACETATE]
6.42	4.01		COC1OC(CO)C(O)C(O)C1O (stereo not given) [METHYL GALACTOSIDE]
	2.48		COC(=O)CCCC(=O)O [MONOMETHYLGLUTARATE]
9.47	11		OC1C(O)C(O)C(O)C(O)C1O (stereo not given) [MYOINOSITOL]
	0.83		C[N+](C)(C)CCCCC(N)C(=O)O (stereo not given) [N,N,N-TRIMETHYLLYSINE]
	13		CN(C)C(N)=NCCCC(N)C(=O)O (stereo not given) [N,N-DIMETHYLARGININE]
7.88	8.1		CC(=O)NC(CC(N)=O)C(=O)O (stereo not given) [N-ACETYLASPARAGINE]
	8.45		CC(=O)NCCCCN [N-ACETYLPUTRESCINE]
7.56	5.57		CC(=O)NC(CO)C(=O)O (stereo not given) [N-ACETYLSERINE]
7.76	4.89		O=CNCC(=O)O [N-FORMYLGLYCINE]

LC retention time [1] [min]	LC retention time [2] [min]	LC retention time [3] [min]	SMILES
8.28	11.6		CNC(CC(=O)O)C(=O)O (stereo not given) [N-METHYLASPARTATE]
8.12	11.1		CNC(CCC(=O)O)C(=O)O (stereo not given) [N-METHYLGLUTAMATE]
	1.38		NC(=O)c1cccnc1 [NICOTINAMIDE]
	2.9		CN1CCCC1c1cccnc1 (stereo not given) [NICOTINE]
7.34	3.49		O=C([O-])c1cc(=O)[nH]c(=O)[nH]1 [OROTATE]
	5.9		CCCCCCCCCCCCCCCC(=O)OC(CC(=O)[O-])C[N+](C)(C)C (stereo not given) [PALMITOYLCARNITINE]
	8.25		CCCCC(=O)[O-] [PENTANOATE]
7.67	8.55		O=C(O)C1CCCN1 (stereo not given) [PROLINE]
	0.94		NCCCCN [PUTRESCINE]
	0.91		c1ccc2ncccc2c1 [QUINOLINE]
6.4	2.47		NC(CSCC(=O)O)C(=O)O (stereo not given) [S-CARBOXYMETHYLCYSTEINE]
	9.54		CNCC(=O)O [SARCOSINE]
	5.14		CCCCCCCCCCCCCCCC(O)C(N)CO (stereo not given) [SPHINGANINE]
	5.7		CCCCCCCCCCCCCC=CC(O)C(COP(=O)([O-])OCC[N+](C)(C)C)NC(=O)CCCCCCCCCCCCCCCCC (stereo not given) [SPHINGOMYELIN]
8.77	10.2		OCC1OC(OC2(CO)OC(CO)C(O)C2O)C(O)C(O)C1O (stereo not given) [SUCROSE]
9.1	8.04		NCCS(=O)(=O)O [TAURINE]
	1.17		NC(N)=S [THIOUREA]
	10.5		CC(O)C(N)C(=O)O (stereo not given) [THREONINE]
9.23	11.3		OCC1OC(OC2OC(CO)C(O)C(O)C2O)C(O)C(O)C1O (stereo not given) [TREHALOSE]
	7.85		C[n+]1cccc(C(=O)[O-])c1 [TRIGONELLINE]
7.72	8.75		CC(C)C(N)C(=O)O (stereo not given) [VALINE]

SMILES	LC retention time [1] [min]	LC retention time [2] [min]	LC retention time [3] [min]
O=C(O)Cc1cnc[nH]1 [4-IMIDAZOLEACETATE]	8.13	9.86	
Nc1ccccc1C(=O)[O-] [ANTHRANILATE]		1.11	
NC1CCSC1=O (stereo not given) [HOMOCYSTEINE THIOLACTONE]		1.05	
CN=C(N)N [METHYLGUANIDINE]		8	
CN(C)c1ccc(N)cc1 [N,N-DIMETHYL-1,4-PHENYLENEDIAMINE]		0.91	
CNCCc1c[nH]c2ccccc12 [N-METHYLTRYPTAMINE]		6.64	
NCCCNCCCN [NORSPERMIDINE]		8.25	
NCCc1ccccc1 [PHENETHYLAMINE]		7	
NCC(O)c1ccccc1 (stereo not given) [PHENYLETHANOLAMINE]		7.74	
NCCc1ccc(O)cc1 [TYRAMINE]		7.72	
